Assay results as given in PubChem BioAssay AID2060622 (Molecular Pharmacology Branch, DTP, NCI, 2025).

System: 242566-281-R-J2-PDC complex spheroid viability
Assay: Anticancer human tumor 242566-281-R-J2-PDC patient-derived pancreatic carcinoma cell line growth inhibition [CLK]
Conditions: for IC50: curve of first compound; for viability, T/C: stronger effect = lower value
Description: A high-throughput screen of multi-cell type tumor spheroids was designed to identify active combinations of […] and targeted small molecules. Complex spheroids include a stromal component modeled by human endothelial cells (HUVEC) and fibroblasts modeled by human mesenchymal stem cells (MSCs). The concentration ranges selected for each drug and investigational agent were based upon clinically achievable concentrations if the clinical Cmax of the agent was known.
Compounds. The drugs and investigational agents: cirtuvivint (SM08502; NSC835563), CC-671 (NSC850746), vemurafenib (NSC761431), tapotoclax (NSC804041), sotorasib (NSC818433), adagrasib (NSC831453), MRTX-1133 (NSC836407), BAY2416964 (NSC825713), copanlisib (NSC816437), inavolisib (NSC800729), abemaciclib (NSC768073), osimertinib (NSC779217), entinostat (NSC756642), eltanexor (KPT-8602, NSC794443), venetoclax (NSC766270), ceralasertib (NSC777638), bortezomib (NSC756655), olaparib (NSC753686), talazoparib (NSC767125), alisertib (NSC759677), peposertib (NSC802822), gemcitabine (NSC613327), 5-fluorouracil (NSC19893), SN-38 (NSC673596), oxaliplatin (NSC266046), paclitaxel (NSC125973), and doxorubicin (NSC123127), were obtained from the National Cancer Institute (NCI) Developmental Therapeutics Program Chemical Repository. The FDA-approved anticancer drug set is available from the Developmental Therapeutics Program at https://dtp.cancer.gov/organization/dscb/obtaining/available plates.htm. […] The stock solutions were prepared in dimethyl sulfoxide (DMSO, Sigma-Aldrich, St. Louis, MO, cat. D2650), except for the platinum complexes which were prepared in saline (Quality Biological, Gaithersburg, MD, cat. 114-055-101), at 800-fold the tested concentration and stored at -70 degrees C prior to their use. All drugs and investigational agents were tested over a range starting from a high concentration at or near the clinical Cmax and decreasing in half-log increments. If the clinical Cmax for an agent had not been determined, the highest concentration tested was 10 microM.
Cell Culture. All cells were maintained in an incubator at 37 degrees C and 5% CO2 with 95% humidity. The PDC lines were cultured according to standard operating procedures established by the NCI PDMR. Briefly, all PDCs were thawed and cultured in Matrigel-coated flasks prepared with a working solution of 1X Ham's F-12 nutrient mix, without supplementation (Invitrogen, Waltham, MA, cat. 11765054), 100 U/mL penicillin-streptomycin (Invitrogen, cat. 15140122), and 2.5% Matrigel (Corning Inc., Corning, NY, cat. 354248) for the first three passages. The 947758-054-R-J2-PDC line was cultured in 6B/Colon 1A media, which includes advanced DMEM/F-12 (Thermo Fisher Scientific, cat. 12634028), 10 mM HEPES (Thermo Fisher Scientific, cat. 15630080), 1X GlutaMAX supplement (Thermo Fisher Scientific, cat. 35050061), 0.1 mg/mL primocin (InvivoGen, cat. ant-pm-2), 10% defined fetal bovine serum, heat inactivated (HyClone Laboratories Inc., cat. SH30070.03HI), 1.25 mM N-Acetyl-L-cysteine (Sigma-Aldrich, cat. A9165), 10 mM nicotinamide (Sigma-Aldrich, cat. N0636), 1X B-27 supplement (Thermo Fisher Scientific, cat. 17504044), 1X N-2 supplement (Thermo Fisher Scientific, cat. 17502048), and 10 microM Y-27632 dihydrochloride (Tocris Bioscience, cat. 1254). The 876862-298-R-J1-PDC was cultured in 6E media, which includes all 6B/Colon 1A media components plus 50% L-WRN conditioned media (ATCC, cat. CRL-3276), 50 ng/mL recombinant human EGF recombinant protein (hEGF; Thermo Fisher Scientific, cat. PHG0311), 10 ng/mL recombinant human fibroblast growth factor 10 (hGFG-10; PeproTech, cat. 100-26), 1 ng/mL recombinant human fibroblast growth factor 2 (hFGF-2; PeproTech, cat. 100-18B), and 1 µM prostaglandin E2 (PGE2; Tocris, cat. 2296). The 227483-062-R1-J1-PDC line was cultured in Panc media, containing all 6E components except hFGF-2, with the addition of 500 nM SB-431542 (Selleckchem, cat. S1067) and 10 nM gastrin (Tocris, cat. 3006). […]

[1] = second compound 0.0316 µM, first compound 0.0316 µM
[2] = second compound 0.0316 µM, first compound 0.1 µM
[3] = second compound 0.0316 µM, first compound 0.316 µM
[4] = second compound 0.0316 µM, first compound 1 µM
[5] = second compound 0.1 µM, first compound 0.0316 µM
[6] = second compound 0.1 µM, first compound 0.1 µM
[7] = second compound 0.1 µM, first compound 0.316 µM
[8] = second compound 0.1 µM, first compound 1 µM
[9] = second compound 0.316 µM, first compound 0.0316 µM
[10] = second compound 0.316 µM, first compound 0.1 µM
[11] = second compound 0.316 µM, first compound 0.316 µM
[12] = second compound 0.316 µM, first compound 1 µM
[13] = second compound 1 µM, first compound 0.0316 µM
[14] = second compound 1 µM, first compound 0.1 µM
[15] = second compound 1 µM, first compound 0.316 µM
[16] = second compound 1 µM, first compound 1 µM
[17] = second compound 3.16 µM, first compound 0.0316 µM
[18] = second compound 3.16 µM, first compound 0.1 µM
[19] = second compound 3.16 µM, first compound 0.316 µM
[20] = second compound 3.16 µM, first compound 1 µM
[21] = second compound 10 µM, first compound 0.0316 µM
[22] = second compound 10 µM, first compound 0.1 µM
[23] = second compound 10 µM, first compound 0.316 µM
[24] = second compound 10 µM, first compound 1 µM
[25] = second compound 0.0316 µM, first compound 0.00316 µM
[26] = second compound 0.0316 µM, first compound 0.01 µM
[27] = second compound 0.1 µM, first compound 0.00316 µM
[28] = second compound 0.1 µM, first compound 0.01 µM
[29] = second compound 0.316 µM, first compound 0.00316 µM
[30] = second compound 0.316 µM, first compound 0.01 µM
[31] = second compound 1 µM, first compound 0.00316 µM
[32] = second compound 1 µM, first compound 0.01 µM
[33] = second compound 3.16 µM, first compound 0.00316 µM
[34] = second compound 3.16 µM, first compound 0.01 µM
[35] = second compound 10 µM, first compound 0.00316 µM
[36] = second compound 10 µM, first compound 0.01 µM
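Further: spheroids exposed to compounds for 7 days before readout.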
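Wherever viability, T/C is given: 100% = DMSO vehicle control wells.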

Work on `CC(Nc1ccc2c(c1)OCCn1cc(N3C(=O)OCC3C(F)F)nc1-2)C(N)=O` (stereo unspecified) + CN1CCN(c2cc(C(=O)Nc3cc4cc(-c5cnn(C)c5)ccc4cn3)ccn2)CC1 yielded an IC50 (second compound 0.0316 µM) of 829 nM, an IC50 (second compound 0.1 µM) of 428 nM and an IC50 (second compound 0.316 µM) of less than 31.6 nM. The IC50 (second compound 1 µM) was less than 31.6 nM, the IC50 (second compound 3.16 µM) was less than 31.6 nM and the IC50 (second compound 10 µM) was less than 31.6 nM. The viability, T/C [1] was 98.6%, the viability, T/C [2] was 85.9% and the viability, T/C [3] was 66.1%. It also gave a viability, T/C [4] of 47.1%, a viability, T/C (second compound 0.0316 µM, first compound 3.16 µM) of 30.2% and a viability, T/C (second compound 0.0316 µM, first compound 10 µM) of 19.6%. The viability, T/C [5] was 89.7%, the viability, T/C [6] was 71.6% and the viability, T/C [7] was 54.1%. For the same molecule, the viability, T/C [8] was 37.7%, the viability, T/C (second compound 0.1 µM, first compound 3.16 µM) was 27.5% and the viability, T/C (second compound 0.1 µM, first compound 10 µM) was 15.9%. For the same molecule, the viability, T/C [9] was 30.8%, the viability, T/C [10] was 28.4% and the viability, T/C [11] was 24%. For the same molecule, the viability, T/C [12] was 16.5%, the viability, T/C (second compound 0.316 µM, first compound 3.16 µM) was 11.1% and the viability, T/C (second compound 0.316 µM, first compound 10 µM) was 6.49%. For the same molecule, the viability, T/C [13] was 3.7%, the viability, T/C [14] was 3.4% and the viability, T/C [15] was 2.95%. The viability, T/C [16] was 2.95%, the viability, T/C (second compound 1 µM, first compound 3.16 µM) was 2.35% and the viability, T/C (second compound 1 µM, first compound 10 µM) was 1.83%. For the same molecule, the viability, T/C [17] was 6.09%, the viability, T/C [18] was 5.94% and the viability, T/C [19] was 5.25%. For the same molecule, the viability, T/C [20] was 4.35%, the viability, T/C (second compound 3.16 µM, first compound 3.16 µM) was 3.81% and the viability, T/C (second compound 3.16 µM, first compound 10 µM) was 3.86%. The viability, T/C [21] was 2.15%, the viability, T/C [22] was 2.04% and the viability, T/C [23] was 1.6%. It also gave a viability, T/C [24] of 1.88%, a viability, T/C (second compound 10 µM, first compound 3.16 µM) of 1.85% and a viability, T/C (second compound 10 µM, first compound 10 µM) of 1.04%.
`CCN1CCN(Cc2ccc(Nc3ncc(F)c(-c4cc(F)c5nc(C)n(C(C)C)c5c4)n3)nc2)CC1` + CN1CCN(c2cc(C(=O)Nc3cc4cc(-c5cnn(C)c5)ccc4cn3)ccn2)CC1 gave an IC50 (second compound 0.0316 µM) greater than 1000 nM, an IC50 (second compound 0.1 µM) greater than 1000 nM and an IC50 (second compound 0.316 µM) of less than 3.16 nM. The IC50 (second compound 1 µM) was less than 3.16 nM, the IC50 (second compound 3.16 µM) was less than 3.16 nM and the IC50 (second compound 10 µM) was less than 3.16 nM. The viability, T/C [25] was 89.9%, the viability, T/C [26] was 109% and the viability, T/C [1] was 101%. It also gave a viability, T/C [2] of 109%, a viability, T/C [3] of 122% and a viability, T/C [4] of 138%. The viability, T/C [27] was 91.7%, the viability, T/C [28] was 83.6% and the viability, T/C [5] was 95.5%. The viability, T/C [6] was 96.3%, the viability, T/C [7] was 122% and the viability, T/C [8] was 123%. For the same molecule, the viability, T/C [29] was 39.4%, the viability, T/C [30] was 40.8% and the viability, T/C [9] was 48.7%. The viability, T/C [10] was 54.3%, the viability, T/C [11] was 69.4% and the viability, T/C [12] was 61.1%. The viability, T/C [31] was 5.41%, the viability, T/C [32] was 4.89% and the viability, T/C [13] was 5.53%. The viability, T/C [14] was 6.44%, the viability, T/C [15] was 9.19% and the viability, T/C [16] was 9.16%. It also gave a viability, T/C [33] of 6.93%, a viability, T/C [34] of 7.07% and a viability, T/C [17] of 6.34%. It also gave a viability, T/C [18] of 7.18%, a viability, T/C [19] of 8.35% and a viability, T/C [20] of 8.64%. It also gave a viability, T/C [35] of 2.36%, a viability, T/C [36] of 1.58% and a viability, T/C [21] of 1.75%. The viability, T/C [22] was 1.54%, the viability, T/C [23] was 1.24% and the viability, T/C [24] was 0.71%.
`COc1c(OCCCN2CCOCC2)ccc2c3n(c(=NC(=O)c4cnc(N)nc4)nc12)CCN3` + CN1CCN(c2cc(C(=O)Nc3cc4cc(-c5cnn(C)c5)ccc4cn3)ccn2)CC1 gave an IC50 (second compound 0.0316 µM) of 25.5 nM, an IC50 (second compound 0.1 µM) of 19.4 nM and an IC50 (second compound 0.316 µM) of less than 3.16 nM. For the same molecule, the IC50 (second compound 1 µM) was less than 3.16 nM, the IC50 (second compound 3.16 µM) was less than 3.16 nM and the IC50 (second compound 10 µM) was less than 3.16 nM. For the same molecule, the viability, T/C [25] was 91%, the viability, T/C [26] was 74.5% and the viability, T/C [1] was 43.5%. The viability, T/C [2] was 22.1%, the viability, T/C [3] was 12.3% and the viability, T/C [4] was 7.95%. It also gave a viability, T/C [27] of 85.6%, a viability, T/C [28] of 69.5% and a viability, T/C [5] of 34.6%. For the same molecule, the viability, T/C [6] was 18.1%, the viability, T/C [7] was 9.35% and the viability, T/C [8] was 6.4%. For the same molecule, the viability, T/C [29] was 34%, the viability, T/C [30] was 28.9% and the viability, T/C [9] was 17.4%. The viability, T/C [10] was 6.56%, the viability, T/C [11] was 4.83% and the viability, T/C [12] was 5.47%. For the same molecule, the viability, T/C [31] was 3.43%, the viability, T/C [32] was 3.63% and the viability, T/C [13] was 3.24%. The viability, T/C [14] was 2%, the viability, T/C [15] was 1.83% and the viability, T/C [16] was 1.24%. For the same molecule, the viability, T/C [33] was 6.71%, the viability, T/C [34] was 6.19% and the viability, T/C [17] was 5.45%. It also gave a viability, T/C [18] of 3.96%, a viability, T/C [19] of 3.56% and a viability, T/C [20] of 2.53%. For the same molecule, the viability, T/C [35] was 2.33%, the viability, T/C [36] was 2.32% and the viability, T/C [21] was 1.35%. The viability, T/C [22] was 1.56%, the viability, T/C [23] was 1.19% and the viability, T/C [24] was 1.26%.
